In patent US20240209027A1, “PEPTIDE AND PEPTIDE-CONTAINING COMPOSITION” (PeptiAID Inc.,, priority 2021, published 2024):
Starred links: 1 amine or outer side, 2 acyl side, 3 side chain; linkers in the order of their positions; H or OH if unused. Positions of bridges follow the written chain, without caps; N, C: chain ends. Non-standard residues stand in square brackets, D forms with d. Residues, ends and D or L forms follow the SMILES beside them. Chains are numbered I, II in the order given. *: point of attachment. X5 = O=C(O)CCCCCCCCCCCCC(=O)N[C@@H](CCC(=O)N[C@@H](CCCCN*)C(=O)O)C(=O)O; X4 = O=C(O)CCCCCCCCCCC(=O)N[C@@H](CCC(=O)N[C@@H](CCCCN*)C(=O)O)C(=O)O; X6 = O=C(O)CCCCCCCCC(=O)N[C@@H](CCC(=O)N[C@@H](CCCCN*)C(=O)O)C(=O)O; Phe(4-F) = N[C@@H](Cc1ccc(F)cc1)C(=O)O; C12 diacid = O=C(O)CCCCCCCCCCC(=O)*; X1 = C[C@@H](Cc1ccc(O)cc1)C(=O)*; NMeE = CN[C@@H](CCC(=O)O)C(=O)O; Cha = N[C@@H](CC1CCCCC1)C(=O)O; Cit = NC(=O)NCCC[C@H](N)C(=O)O; NMeNle = CCCC[C@H](NC)C(=O)O; hCys = N[C@@H](CCS)C(=O)O; PEG2 = NCCOCCOCCC(=O)O; X2 = O=C(C[*:1])[*:2]; Aib = CC(C)(N)C(=O)O

System: SARS-CoV-2-derived S protein, Delta strain
Format: cell-based
Conditions: Table 12

With `CCCC[C@@H](C(=O)NC(C)(C)C(=O)N[C@@H](CC1CCCCC1)C(=O)N[C@@H](Cc1ccc(F)cc1)C(=O)N[C@H](CC(=O)O)C(N)=O)N(C)C(=O)[C@H](CCC(=O)O)N(C)C(=O)CSCC[C@H](NC(=O)[C@H](CC1CCCCC1)NC(=O)[C@@H](CCCCN)NC(=O)[C@H](CCCNC(N)=O)NC(=O)[C@H](Cc1ccc(O)cc1)NC(=O)[C@@H](C)Cc1ccc(O)cc1)C(=O)N[C@H](CCC(=O)O)C(=O)N[C@H](CCCCNC(=O)CCCCCCCCCCC(=O)O)C(N)=O` [Peptide 5555_p221] (I: X1-Y[Cit][dK][Cha][hCys][dE][dK](C12 diacid)-NH2 / II: [NMeE][NMeNle][Aib][Cha][Phe(4-F)][dD]-NH2; linker I:5-II:N via X2) the IC50 was 2.6 nM and the “Imax: % (at 500 nM)” value was 97%.
In the case of `CCCC[C@H]1C(=O)NC(C)(C)C(=O)N[C@@H](CC2CCCCC2)C(=O)N[C@@H](Cc2ccc(F)cc2)C(=O)N[C@H](CC(=O)O)C(=O)N[C@@H](Cc2ccc(O)cc2)C(=O)N[C@@H](Cc2ccc(O)cc2)C(=O)N[C@@H](CCCNC(N)=O)C(=O)N[C@H](CCCCN)C(=O)N[C@@H](CC2CCCCC2)C(=O)N[C@H](C(=O)N[C@H](CCC(=O)O)C(=O)NCCOCCOCCC(=O)N[C@H](CCCCNC(=O)CCCCCCCCCCC(=O)O)C(N)=O)CSCC(=O)N(C)[C@@H](CCC(=O)O)C(=O)N1C` [Peptide 5555_p227] ({CH2CO}-[NMeE][NMeNle][Aib][Cha][Phe(4-F)][dD]YY[Cit][dK][Cha]C[dE][PEG2][dK](C12 diacid)-NH2; thioether N-12), the IC50 is reported as 1.9 nM and the “Imax: % (at 500 nM)” value is reported as 100%.
For `CCCC[C@H]1C(=O)NC(C)(C)C(=O)N[C@@H](CC2CCCCC2)C(=O)N[C@@H](Cc2ccc(F)cc2)C(=O)N[C@H](CC(=O)O)C(=O)N[C@@H](Cc2ccc(O)cc2)C(=O)N[C@@H](Cc2ccc(O)cc2)C(=O)N[C@@H](CCCNC(N)=O)C(=O)N[C@H](CCCCN)C(=O)N[C@@H](CC2CCCCC2)C(=O)N[C@H](C(=O)N[C@H](CCC(=O)O)C(=O)NCCCC[C@H](NC(=O)CC[C@H](NC(=O)CCCCCCCCC(=O)O)C(=O)O)C(=O)O)CSCC(=O)N(C)[C@@H](CCC(=O)O)C(=O)N1C` [Peptide 5555_p233] ({CH2CO}-[NMeE][NMeNle][Aib][Cha][Phe(4-F)][dD]YY[Cit][dK][Cha]C[dE]-X6; thioether N-12), the IC50 was 4.2 nM and the “Imax: % (at 500 nM)” value was 99%.
`CCCC[C@H]1C(=O)NC(C)(C)C(=O)N[C@@H](CC2CCCCC2)C(=O)N[C@@H](Cc2ccc(F)cc2)C(=O)N[C@H](CC(=O)O)C(=O)N[C@@H](Cc2ccc(O)cc2)C(=O)N[C@@H](Cc2ccc(O)cc2)C(=O)N[C@@H](CCCNC(N)=O)C(=O)N[C@H](CCCCN)C(=O)N[C@@H](CC2CCCCC2)C(=O)N[C@H](C(=O)N[C@H](CCC(=O)O)C(=O)NCCCC[C@H](NC(=O)CC[C@H](NC(=O)CCCCCCCCCCC(=O)O)C(=O)O)C(=O)O)CSCC(=O)N(C)[C@@H](CCC(=O)O)C(=O)N1C` [Peptide 5555_p234] ({CH2CO}-[NMeE][NMeNle][Aib][Cha][Phe(4-F)][dD]YY[Cit][dK][Cha]C[dE]-X4; thioether N-12) was tested, and the IC50 was 5.9 nM and the “Imax: % (at 500 nM)” value was 99%.
For `CCCC[C@H]1C(=O)NC(C)(C)C(=O)N[C@@H](CC2CCCCC2)C(=O)N[C@@H](Cc2ccc(F)cc2)C(=O)N[C@H](CC(=O)O)C(=O)N[C@@H](Cc2ccc(O)cc2)C(=O)N[C@@H](Cc2ccc(O)cc2)C(=O)N[C@@H](CCCNC(N)=O)C(=O)N[C@H](CCCCN)C(=O)N[C@@H](CC2CCCCC2)C(=O)N[C@H](C(=O)N[C@H](CCC(=O)O)C(=O)NCCCC[C@H](NC(=O)CC[C@H](NC(=O)CCCCCCCCCCCCC(=O)O)C(=O)O)C(=O)O)CSCC(=O)N(C)[C@@H](CCC(=O)O)C(=O)N1C` [Peptide 5555_p235] ({CH2CO}-[NMeE][NMeNle][Aib][Cha][Phe(4-F)][dD]YY[Cit][dK][Cha]C[dE]-X5; thioether N-12), the IC50 was 7 nM and the “Imax: % (at 500 nM)” value was 99%.
